Values of other authors as cited in paper PMC3010278 (Journal of medicinal chemistry, 2010).

Test system: QR1
Conditions: in vivo

C[S+]([O-])CCCCN=C=S (stereo not shown) [Compound 54, sulforaphane]
QR1 induction in rat mammary gland: induce QR1
